# PMC8636514, “Therapeutic potential of TRPM8 antagonists in prostate cancer” (Scientific Reports, 2021)
# Assays:
# TRPM8 = assay: Western blot of TRPM8 in LNCaP lysate proteins; assay type: cell-based, human; details: for TRPM8 in lysates, Average (n=3): Fig 6d upper panel
# Description: (§1) All performed as reported. The mouse monoclonal anti-AR (441; Santa Cruz) antibody was used in Co-Ip or WB approaches. TRPM8 was detected using the rabbit polyclonal anti-TRPM8 (NBP1-97311; Novus Biological). […] The rabbit polyclonal anti-ERK (C-14; Santa Cruz), antibody was used to detect total ERK. FAK and P-Tyr397 FAK were detected using the mouse monoclonal anti-FAK (Clone 77/610077 BD Transduction Laboratories) or anti P-Tyr397 FAK (Clone 14/611722; BD Transduction Laboratories) antibodies, respectively. P-Tyr118 paxillin and total paxillin were detected using the rabbit polyclonal anti-P-Y118 (#2541, Cell Signaling) or the mouse monoclonal anti-paxillin (clone 349; BD Biosciences) antibodies, respectively. […] P-Tyr 416 Src and Src were detected using the rabbit monoclonal anti P-Tyr 416 Src (#6943; Cell Signaling) or the mouse monoclonal anti Src (Calbiochem) antibodies, respectively. ERα and ERβ were detected using the rabbit polyclonal anti-ERα (543; Santa Cruz) or anti-ERβ (Upstate Biotechnology, U.S.A.) antibodies. Cyclin D1, p27 and Cdk4 were stained using the mouse monoclonal anti-cyclin D1 (clone AM29; from Zymed Laboratories Inc.), the rabbit polyclonal anti-p27 (C-19; Santa Cruz) or anti Cdk-4 (c-22; Santa Cruz) antibodies, respectively. The mouse monoclonal anti-tubulin (Sigma-Aldrich) antibody was used to detect tubulin. The ECL system (GE Healthcare) was employed to reveal immune-reactive proteins. Densitometric analysis of WB was performed by using Image J Software (https://imagej.nih.gov/ij).
# LNCaP cells [1] = assay: DNA synthesis (BrdU incorporation) in LNCaP cells; assay type: cell-based, human; details: for effect on DNA synthesis stimulated by R1881: 1 nM R1881, compound 1 μM; for inhibitory effect on R1881-stimulated DNA synthesis, compared with 3 and 5: 10 nM R1881, compound 1 μM
# Procedure: […] Cells were fixed, permeabilized, washed and the BrdU incorporation was analysed as reported. Nuclei were stained with Hoechst and cells on coverslips were scored by IF microscopy, using a DMLB Leica (Leica) fluorescent microscope, equipped with HCX PL Apo 63 × oil objective. Different fields from each coverslip were analyzed and BrdU incorporation was calculated by the formula: percentage of BrdU-positive cells = (No. of BrdU-positive cells/No. of total cells) × 100. Data in the graphs derive from at least 1000 scored cells for each coverslip. Representative images were captured using DC480 camera (Leica) and acquired using Leica Suite software. They are representative of three different experiments.
# LNCaP cells [2] = assay: Transmigration assay in Boyden chamber, LNCaP cells; assay type: cell-based, human; details: for androgen-induced cell migration: 10 nM R1881, compound 1 μM; for migration when added alone: compound 1 μM, no hormone
# Procedure: In wound scratch analysis, 1.8 × 10^5 cells were seeded in a 24-well plate and made quiescent. Cells were then wounded using 10 µl sterile pipette tips and washed with PBS. They were left un-stimulated or stimulated for the indicated times, in the absence or presence of the selected compounds. To avoid cell proliferation, cytosine arabinoside (Sigma-Aldrich) at 50 μM (final concentration) was included in the cell medium. Different fields were analysed by contrast-phase microscopy, as below described in this section. Migration and invasion assays were done as reported. In migration assay, we used 3 × 10^4 cells in collagen pre-coated Boyden’s chambers with 8 μm polycarbonate membrane (Falcon). The indicated stimuli were added to the upper and the lower chambers. Cytosine arabinoside (at 50 μM) was included in the cell medium. After 7 h, non-migrating cells from the membrane upper surface were removed using a sterile cotton swab. In invasion assay, we used 5 × 10^4 cells in Boyden’s chambers with 8 μm polycarbonate membrane (Falcon) pre-coated with growth factor reduced- and phenol red-free Matrigel (Corning). The indicated stimuli were added to the upper and the lower chambers. Cytosine arabinoside (at 50 μM) was included in the cell medium. After 24 h, non-invading cells from the membrane upper surface were removed using a sterile cotton swab. In migration and invasion assays, the membranes were fixed for 20 min in 4% paraformaldehyde, stained with Hoechst (Sigma-Aldrich), removed with forceps from the companion plate and mounted. Migrating and invading cells were scored by fluorescence microscopy, as below described in this section.
# (§2) In wound scratch assay, different fields were analysed using DMIRB inverted microscope (Leica) equipped with N-Plan 10 × objective (Leica), as reported. LNCaP organoids were analysed using the same microscope equipped with C-Plan 40 × or HCX PL Fluotar 63 × objectives (Leica). Images were captured using a DFC 450C camera (Leica) and acquired using the Application Suite Software (Leica). They are representative of three different experiments. The relative organoid size was calculated using the same software and expressed as a fold increase over the basal organoid size (measured at 3th day). The wound gap was calculated using Image J Software and expressed as % of the decrease in the wound area. Migrating or invading cells from at least 30 fields/each membrane were scored, using a DMLB (Leica) fluorescent microscope, equipped with HCPL Fluotar 20 × objective.
# LNCaP cell spheroids = assay: 3D culture in ECM, LNCaP cell spheroid size; assay type: cell-based, human; details: for androgen-induced increase of spheroid size / spheroid size in the absence of hormone: 15 days; for spheroid size in the absence of hormone: compound 1 μM alone
# Procedure: LNCaP cell spheroids were generated as reported. Briefly, 2 × 10^4 LNCaP cells were mixed with 200 μL of phenol-red free growth factor-reduced Matrigel and 50 μL of organoid plating medium in each well. The mixture was pipetted in 24-well plate and allowed to solidify for 45 min at 37 °C, before the addition of 400 μL organoid plating-medium, which was made using phenol red-free DMEM/F12 medium, containing 7% CSS, penicillin (100 U/mL), streptomycin (100 U/mL), diluted GlutaMAX 100X (Gibco), 10 mM Hepes, B27 supplement (50 × stock solution; Thermofisher, Waltham, Massachusetts, USA), […] nicotinamide (Sigma-Aldrich), […] N-acetylcysteine (Sigma-Aldrich) and 10 μM Y-27632 (Millipore, Burlington, MA, USA). After 3 days, the organoid-plating medium was replaced with a similar medium in the absence of N-acetylcysteine and Y-27632. At the 3rd day, spheroids/organoids were untreated or treated with the indicated compounds. The medium was changed every 3 days and fields were analyzed by phase-contrast microscopy.
# as §2
# p27 = assay: Western blot of p27 in LNCaP cells; assay type: cell-based, human; details: for P27, fold increase over the basal level: 15 h; for androgen-induced p27 down-regulation: R1881, compound 1 μM
# Description: as §1
# FAK, paxillin = assay: Western blot of FAK activation and paxillin phosphorylation in LNCaP cells; assay type: cell-based, human; details: for androgen-elicited FAK activation and paxillin phosphorylation: 10 nM R1881, 10 min; for androgen-elicited FAK activation and paxillin phosphorylation / FAK or paxillin phosphorylation when used alone: compound 1 μM; for FAK or paxillin phosphorylation when used alone: no R1881
# Description: as §1
# AR/TRPM8 complex = target: T1, AR/TRPM8 complex (Homo sapiens, UniProt Q7Z2W7); assay: Co-IP of AR with TRPM8 in LNCaP cells; assay type: cell-based; details: for androgen-induced Co-IP of AR with TRPM8: 10 nM R1881, 10 min, compound 1 μM; for AR in IP anti-AR, Average (n=3) / TRPM8 in IP anti-AR, Average (n=3): Fig 6d lower panel; for AR, Average (n=3) / TRPM8, Average (n=3): Fig 6e, R1881 alone
# T1 construct: We here dissected an endogenous non-genomic mechanism of the TRPM8 channel regulation by androgens in PC cells; endogenous in cells; host or cells: LNCaP cells
# Description: as §1
# [3] = 1 nM R1881 + compound 1 μM, Fig 2e-f
# [4] = fourth group of list (probably IP anti-AR)
# T1 sequence (Q7Z2W7 whole entry, one chain of several): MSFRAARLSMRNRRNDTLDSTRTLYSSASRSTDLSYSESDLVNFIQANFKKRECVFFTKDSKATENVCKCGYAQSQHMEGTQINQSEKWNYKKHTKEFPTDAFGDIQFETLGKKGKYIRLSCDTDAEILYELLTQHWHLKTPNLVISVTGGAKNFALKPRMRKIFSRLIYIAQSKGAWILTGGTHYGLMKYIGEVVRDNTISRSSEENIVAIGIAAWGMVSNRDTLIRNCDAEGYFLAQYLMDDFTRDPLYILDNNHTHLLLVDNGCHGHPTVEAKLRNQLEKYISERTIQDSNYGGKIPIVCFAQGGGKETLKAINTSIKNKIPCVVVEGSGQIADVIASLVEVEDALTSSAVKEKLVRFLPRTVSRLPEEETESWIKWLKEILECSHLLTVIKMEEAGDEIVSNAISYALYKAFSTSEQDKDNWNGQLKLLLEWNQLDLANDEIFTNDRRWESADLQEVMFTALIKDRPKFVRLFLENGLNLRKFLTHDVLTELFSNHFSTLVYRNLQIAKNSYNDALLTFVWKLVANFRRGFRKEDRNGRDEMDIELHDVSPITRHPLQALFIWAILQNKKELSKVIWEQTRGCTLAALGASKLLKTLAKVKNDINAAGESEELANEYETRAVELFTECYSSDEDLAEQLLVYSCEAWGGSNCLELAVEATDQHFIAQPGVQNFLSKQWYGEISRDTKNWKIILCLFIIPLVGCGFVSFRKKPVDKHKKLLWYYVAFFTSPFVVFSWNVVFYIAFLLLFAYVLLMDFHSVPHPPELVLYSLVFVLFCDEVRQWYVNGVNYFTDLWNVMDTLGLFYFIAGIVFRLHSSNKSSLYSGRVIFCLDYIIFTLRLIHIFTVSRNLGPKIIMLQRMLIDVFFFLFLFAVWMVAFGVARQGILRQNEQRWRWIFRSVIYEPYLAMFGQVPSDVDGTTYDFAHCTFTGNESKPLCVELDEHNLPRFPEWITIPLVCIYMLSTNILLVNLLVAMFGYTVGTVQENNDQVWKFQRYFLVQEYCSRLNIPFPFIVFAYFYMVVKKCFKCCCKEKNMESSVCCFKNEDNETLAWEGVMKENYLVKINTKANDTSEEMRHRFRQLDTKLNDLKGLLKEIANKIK
SMILES,"TRPM8 in lysates, Average (n=3) (TRPM8; 10 nM R1881 + compound 1 μM)","TRPM8 in lysates, Average (n=3) (TRPM8; compound 1 μM alone)",effect on DNA synthesis stimulated by R1881 (LNCaP cells [1]),"inhibitory effect on R1881-stimulated DNA synthesis, compared with 3 and 5 (LNCaP cells [1])",androgen-induced cell migration (LNCaP cells [2]),migration when added alone (LNCaP cells [2]),"androgen-induced increase of spheroid size (LNCaP cell spheroids; 1 nM R1881, compound 1 µM)","androgen-induced increase of spheroid size (LNCaP cell spheroids; 10 nM R1881, compound 1 μM)",spheroid size in the absence of hormone (LNCaP cell spheroids),"P27, fold increase over the basal level (p27; [3])",androgen-induced p27 down-regulation (p27),"androgen-elicited FAK activation and paxillin phosphorylation (FAK, paxillin)","FAK or paxillin phosphorylation when used alone (FAK, paxillin)",androgen-induced Co-IP of AR with TRPM8 (AR/TRPM8 complex),"AR in IP anti-AR, Average (n=3) (AR/TRPM8 complex; 10 nM R1881 + compound 1 μM)","TRPM8 in IP anti-AR, Average (n=3) (AR/TRPM8 complex; 10 nM R1881 + compound 1 μM)","AR in IP anti-AR, Average (n=3) (AR/TRPM8 complex; compound 1 μM alone)","TRPM8 in IP anti-AR, Average (n=3) (AR/TRPM8 complex; compound 1 μM alone)",AR/TRPM8 complex assembly in the absence of hormone (AR/TRPM8 complex; compound 1 μM alone),also measured
c1ccc(COc2ccc3[nH]cc(CCNCc4ccc(Oc5ccccc5)cc4)c3c2)cc1 [Compound 4],1,1,reverted,stronger,inhibited,leaving unaffected,reverted,abolished,leaving unaffected,"1,1 fold",significantly impair,impaired,did not affect,abolished this association,"1,1","0,7","1,1","0,3",did not affect,–
COC(=O)[C@H](Cc1c[nH]c2ccccc12)N(Cc1ccccc1)Cc1ccccc1 [Compound 6],1,"1,1",reverted,stronger,inhibited,leaving unaffected,reverted,abolished,leaving unaffected,1 fold,significantly impair,impaired,did not affect,abolished this association,1,"0,6","1,1","0,3",did not affect,"P27, fold increase over the basal level (p27; 10 nM R1881 + compound 1 μM, Fig 2d): 1,1 fold"
"C[C@]1(O)CC[C@H]2[C@@H]3CCC4=CC(=O)CCC4=C3C=C[C@@]21C [Compound R1881, reference compound]",–,–,–,–,–,–,–,–,–,–,–,–,–,–,–,–,–,–,–,"amount of TRPM8 (Western blot) (TRPM8; 10 nM R1881, 24 h, quiescent LNCaP cells): very weakly increased; TRPM8, Average (n=3) (TRPM8; Fig 6e, R1881 alone): 1; TRPM8 in lysates, Average (n=3) (TRPM8; 10 nM R1881 alone, 10 min): 0,9; increase of the DNA synthesis (LNCaP cells [1]; 1 nM R1881 alone): ~2 folds; increase in BrdU incorporation (LNCaP cells [1]; 10 nM R1881 alone): ~3,5 folds; increase in number of migrating cells (LNCaP cells [2]; 10 nM R1881 alone): ~3 folds; response on spheroid size (LNCaP cell spheroids; 1 nM R1881 alone): only a weak response; P27, fold increase over the basal level (p27; 1 nM R1881 alone, Fig 2e): 0,6 fold; P27, fold increase over the basal level (p27; 1 nM R1881 alone, Fig 2f): 0,6 fold; P27, fold increase over the basal level (p27; 10 nM R1881 alone, Fig 2d): 0,4 fold; FAK activation and paxillin phosphorylation (FAK, paxillin; 10 nM R1881 alone, within 10 min): triggered; AR, Average (n=3) (AR/TRPM8 complex; [4]): 1; TRPM8, Average (n=3) (AR/TRPM8 complex; [4]): 3,1; AR, Average (n=3) (AR/TRPM8 complex; second group of list): 0,1; TRPM8, Average (n=3) (AR/TRPM8 complex; second group of list): 0,1; AR, Average (n=3) (AR/TRPM8 complex; third group of list): 1; TRPM8, Average (n=3) (AR/TRPM8 complex; third group of list): 0; AR in IP anti-AR, Average (n=3) (AR/TRPM8 complex; 10 nM R1881 alone, 10 min): 1; TRPM8 in IP anti-AR, Average (n=3) (AR/TRPM8 complex; 10 nM R1881 alone, 10 min): 2,9"
